This note sets out measurements from ChEMBL document CHEMBL3826884, “Synthesis and biological evaluation of 3-substituted 5-benzylidene-1-methyl-2-thiohydantoins as potent NADPH oxidase (NOX) inhibitors” (Bioorg Med Chem, 2016).

One assay addresses T1, NADPH oxidase 1 (Homo sapiens, UniProt Q9Y5S8).
T1 sequence (Q9Y5S8 whole entry): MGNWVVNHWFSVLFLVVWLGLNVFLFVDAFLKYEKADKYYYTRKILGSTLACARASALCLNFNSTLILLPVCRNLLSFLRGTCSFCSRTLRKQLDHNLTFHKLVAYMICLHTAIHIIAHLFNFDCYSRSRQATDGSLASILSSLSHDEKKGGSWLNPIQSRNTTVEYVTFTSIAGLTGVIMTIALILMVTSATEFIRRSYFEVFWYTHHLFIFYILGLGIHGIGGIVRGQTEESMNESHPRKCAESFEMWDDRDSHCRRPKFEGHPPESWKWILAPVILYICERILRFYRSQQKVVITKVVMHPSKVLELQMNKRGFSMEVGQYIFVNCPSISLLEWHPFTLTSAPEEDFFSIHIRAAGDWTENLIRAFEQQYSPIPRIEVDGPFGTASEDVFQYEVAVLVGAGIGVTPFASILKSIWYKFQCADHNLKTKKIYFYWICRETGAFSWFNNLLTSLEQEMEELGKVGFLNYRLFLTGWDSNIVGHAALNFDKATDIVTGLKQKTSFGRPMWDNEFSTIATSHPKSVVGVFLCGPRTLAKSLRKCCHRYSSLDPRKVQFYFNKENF
Briefly: Inhibition of human NOX1 expressed in Drosophila DUOX knockdown model assessed as decrease in ROS production by lucigenin chemiluminescence assay.

The target of another assay is T2, NADPH oxidase 4 (Homo sapiens, UniProt Q9NPH5).
T2 sequence (Q9NPH5 whole entry): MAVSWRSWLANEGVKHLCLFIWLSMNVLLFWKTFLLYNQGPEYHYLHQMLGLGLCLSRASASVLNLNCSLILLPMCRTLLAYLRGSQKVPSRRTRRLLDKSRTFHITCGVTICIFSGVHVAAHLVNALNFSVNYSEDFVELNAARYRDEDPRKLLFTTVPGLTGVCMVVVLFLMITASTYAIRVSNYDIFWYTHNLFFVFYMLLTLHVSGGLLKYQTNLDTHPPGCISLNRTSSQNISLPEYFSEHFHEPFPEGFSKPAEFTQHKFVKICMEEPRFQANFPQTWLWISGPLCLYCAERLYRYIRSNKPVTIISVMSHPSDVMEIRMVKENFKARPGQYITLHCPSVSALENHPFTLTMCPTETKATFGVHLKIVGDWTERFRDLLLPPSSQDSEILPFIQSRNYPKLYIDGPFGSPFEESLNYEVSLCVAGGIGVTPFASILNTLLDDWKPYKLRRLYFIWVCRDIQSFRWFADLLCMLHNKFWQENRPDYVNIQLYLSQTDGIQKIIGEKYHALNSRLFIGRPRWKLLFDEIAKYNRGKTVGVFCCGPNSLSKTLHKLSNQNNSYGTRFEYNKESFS
Briefly: Inhibition of human NOX4 expressed in Drosophila DUOX knockdown model assessed as decrease in ROS production by lucigenin chemiluminescence assay.

The species named for another assay is Homo sapiens. Briefly: Selectivity ratio of Ki for human NOX1 expressed in Drosophila DUOX knockdown model to Ki for human NOX4 expressed in Drosophila DUOX knockdown model.

What is called Ki is a measure of affinity in units of concentration, obtained from inhibition or displacement. For `Cc1ccc(N2C(=O)/C(=C/c3cccc(O)c3O)N(C)C2=S)cc1`, the results for the Ki on NADPH oxidase 1 and at NADPH oxidase 4 were 50.3 µM and 27 µM, respectively.
As for `Cc1ccc(N2C(=O)/C(=C/c3ccc(O)cc3O)N(C)C2=S)cc1`, the Ki is 27.1 µM on NADPH oxidase 1 and 34.6 µM on NADPH oxidase 4.
For `CCc1ccc(N2C(=O)/C(=C/c3ccc(N(C)C)cc3)N(C)C2=S)cc1`, the Ki on NADPH oxidase 1 was determined as 4.39 µM; on NADPH oxidase 4 it was 2.63 µM.
On to `CN1C(=S)N(c2cccc(Cl)c2)C(=O)/C1=C/c1cccc(O)c1O`, for which the figures for the Ki at NADPH oxidase 1 and on NADPH oxidase 4 were 7.65 µM and 9.31 µM, respectively.
The corresponding values for `CN1C(=S)N(C2CCCCC2)C(=O)/C1=C/c1ccc(N(C)C)cc1` are 12.3 µM and 35.6 µM.
The corresponding values for `CN1C(=S)N(C2CCCCC2)C(=O)/C1=C/c1ccc(O)cc1O` are 26 µM and 37.6 µM.
For `CN1C(=S)N(c2ccccc2)C(=O)/C1=C/c1ccc(N(C)C)cc1`, the Ki at NADPH oxidase 1 is 1.95 µM; at NADPH oxidase 4 it was 0.88 µM. Further, in the assay listed under Homo sapiens, the Ratio Ki came to 2.2.
Regarding `CN1C(=S)N(C2CCCCC2)C(=O)/C1=C/c1cccc(O)c1O`, the Ki at NADPH oxidase 1 is 7.39 µM; at NADPH oxidase 4, 6.35 µM.
As to `CN1C(=S)N(c2ccc3c(c2)CCC3)C(=O)/C1=C/c1cccc(O)c1O`, the Ki at NADPH oxidase 1 came to 6.63 µM; on NADPH oxidase 4, 2.36 µM. The Ratio Ki in the assay filed under Homo sapiens is 2.8.
On to `CCc1ccc(N2C(=O)/C(=C/c3cccc(O)c3O)N(C)C2=S)cc1`, for which the Ki on NADPH oxidase 1 worked out at 27.9 µM; on NADPH oxidase 4, 26.4 µM.
Take `CN1C(=S)N(c2ccc3c(c2)CCC3)C(=O)/C1=C/c1ccc(O)cc1O`: the inhibition constant (Ki) at NADPH oxidase 1 was 6.58 µM; on NADPH oxidase 4 it was 6.83 µM.
The corresponding values for `CN1C(=S)N(c2ccccc2)C(=O)/C1=C/c1ccc(O)cc1O` are 33.8 µM and 27.7 µM.
The corresponding values for `CN1C(=S)N(c2ccccc2)C(=O)/C1=C/c1cccc(O)c1O` are 49.7 µM and 24 µM.
As for `CCc1ccc(N2C(=O)/C(=C/c3ccc(O)cc3O)N(C)C2=S)cc1`, the inhibition constant Ki amounted to 8.4 µM at NADPH oxidase 1 and 2.39 µM on NADPH oxidase 4. For the same compound, the Ratio Ki in the assay filed under Homo sapiens stood at 3.5.
With `Cc1ccc(N2C(=O)/C(=C/c3ccc(N(C)C)cc3)N(C)C2=S)cc1`, the Ki was found to be 1.02 µM on NADPH oxidase 1 and 2.33 µM on NADPH oxidase 4.
Turning to `CN1C(=S)N(c2cccc(Cl)c2)C(=O)/C1=C/c1ccc(O)cc1O`, the Ki at NADPH oxidase 1 was found to be 34.5 µM; on NADPH oxidase 4, 33.8 µM.
The corresponding values for `CN1C(=S)N(c2ccc3c(c2)CCC3)C(=O)/C1=C/c1ccc(N(C)C)cc1` are 8.04 µM and 13.1 µM.
The corresponding values for `CN1C(=S)N(c2cccc(Cl)c2)C(=O)/C1=C/c1ccc(N(C)C)cc1` are 0.35 µM and 0.84 µM.
